Patent publication US20190105367A1, “ANTIMICROBIAL 4-OXOQUINOLIZINES” (Emergent Product Development Gaithersburg Inc., priority 2011, published 2019)

Key:
[1] = system: strains of A. baumannii and one strain of Acinetobacter sp.; assay: MIC with sub-inhibitory concentrations (0.25x MIC) of polymyxin B, panel of Acinetobacter strains (Example 4); assay type: cell-based
A. baumannii ATCC 19606 [2] = assay: MIC without and with sub-inhibitory polymyxin B (Example 4); assay type: cell-based, Acinetobacter baumannii; details: A. baumannii ATCC 19606; for MIC: 2nd experiment
A. baumannii ATCC 19606 [3] = assay: Preliminary MBC without and with sub-inhibitory polymyxin B (Example 4); assay type: cell-based, Acinetobacter baumannii; details: for MBC: 2nd experiment
A. baumannii J2 = assay: MIC without and with sub-inhibitory polymyxin B (Example 4); assay type: cell-based, Acinetobacter baumannii; details: A. baumannii J2
[4] = system: Acinetobacter sp. (H064200250); assay: as above; assay type: cell-based; details: for MIC: Acinetobacter spp. H064200250 (OXA51), 2nd experiment
A. baumannii A329 = assay: Preliminary MBC without and with sub-inhibitory polymyxin B (Example 4); assay type: cell-based, Acinetobacter baumannii; details: for MBC: 2nd experiment
A. baumannii A387 [5] = assay: MIC without and with sub-inhibitory polymyxin B (Example 4); assay type: cell-based, Acinetobacter baumannii; details: A. baumannii A387; for MIC: 2nd experiment
A. baumannii A387 [6] = assay: Preliminary MBC without and with sub-inhibitory polymyxin B (Example 4); assay type: cell-based, Acinetobacter baumannii; details: for MBC: 2nd experiment
A. baumannii A390 [7] = assay: MIC without and with sub-inhibitory polymyxin B (Example 4); assay type: cell-based, Acinetobacter baumannii; details: A. baumannii A390; for MIC: 2nd experiment
A. baumannii A14 [8] = assay: Preliminary MBC without and with sub-inhibitory polymyxin B (Example 4); assay type: cell-based, Acinetobacter baumannii; details: 2nd experiment
How it was run: (§1)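 Bactericidal endpoint scored visually on plates incubated at 37° C (18-20 hours): the lowest concentration where growth fell about 90% versus the positive control, generally leaving one colony or none.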

A. baumannii A390 [9] = assay: as above; assay type: cell-based, Acinetobacter baumannii; details: for MBC: 2nd experiment
How it was run: as §1

A. baumannii A473 [10] = assay: as above; assay type: cell-based, Acinetobacter baumannii; details: for MBC: 2nd experiment
How it was run: as §1

A. baumannii NCTC 13301 [11] = assay: as above; assay type: cell-based, Acinetobacter baumannii; details: A. baumannii NCTC 13301, preliminary MBC; for MBC: 2nd experiment
How it was run: as §1

A. baumannii A401 [12] = assay: MIC without and with sub-inhibitory polymyxin B (Example 4); assay type: cell-based, Acinetobacter baumannii; details: A baumannii A 401; for MIC: 2nd experiment
A. baumannii A401 [13] = assay: Preliminary MBC without and with sub-inhibitory polymyxin B (Example 4); assay type: cell-based, Acinetobacter baumannii; details: for MBC: 2nd experiment
A. baumannii A472 [14] = assay: MIC without and with sub-inhibitory polymyxin B (Example 4); assay type: cell-based, Acinetobacter baumannii; details: A. baumannii A472; for MIC: 2nd experiment
A. baumannii A472 [15] = assay: Preliminary MBC without and with sub-inhibitory polymyxin B (Example 4); assay type: cell-based, Acinetobacter baumannii; details: A. baumannii A472, preliminary MBC; for MBC: 2nd experiment
A. baumannii A473 [16] = assay: MIC without and with sub-inhibitory polymyxin B (Example 4); assay type: cell-based, Acinetobacter baumannii; details: A. baumannii A473; for MIC: 2nd experiment
A. baumannii A489 = assay: as above; assay type: cell-based, Acinetobacter baumannii; details: A. baumannii A489; for MIC: 2nd experiment
A. baumannii NCTC 13301 [17] = assay: as above; assay type: cell-based, Acinetobacter baumannii; details: A. baumannii NCTC 13301; +[…] polymyxin B; 1st experiment
A. baumannii NCTC 13301 [18] = assay: as above; assay type: cell-based, Acinetobacter baumannii; details: A. baumannii NCTC 13301; +[…] PB; 2nd experiment
A. baumannii A14 [19] = assay: as above; assay type: cell-based, Acinetobacter baumannii; details: 1st experiment
A. baumannii A14 [20] = assay: as above; assay type: cell-based, Acinetobacter baumannii; details: A. baumannii A14, 2nd experiment
A. baumannii A14 [21] = assay: Preliminary MBC without and with sub-inhibitory polymyxin B (Example 4); assay type: cell-based, Acinetobacter baumannii; details: A. baumannii A14, preliminary MBC, 1st experiment
[22] = +0.06 μg/ml polymyxin B, 1st experiment
[23] = without polymyxin B, 1st experiment
[24] = +[…] polymyxin B, 1st experiment

Imipenem/cilastatin
MIC range with PB (0.25x MIC) Oct. 1, 2008 n = 8 ([1]; 1st experiment, […] polymyxin B, ATCC 19606, A329, A390 and A473 not taken): <0.125 to 16 µg/mL | MIC range with PB (0.25x MIC) Oct. 14, 2008 n = 11 ([1]; 2nd experiment, 0.06 μg/ml polymyxin B, all strains except the ATCC strain): ≤0.125 to 128 µg/mL | MIC (A. baumannii ATCC 19606 [2]; +0.06 μg/ml PB): 1 µg/mL | MIC +0.06 μg/ml PB (A. baumannii ATCC 19606 [2]; [22]): 1 µg/mL | MIC (A. baumannii ATCC 19606 [2]; without PB): 1 µg/mL | MIC (A. baumannii ATCC 19606 [2]; without PB, value in parentheses marked *, mark not explained): 4 µg/mL | MIC without PB (A. baumannii ATCC 19606 [2]; [23]): 2 µg/mL | MBC (A. baumannii ATCC 19606 [3]; A. baumannii ATCC 19606, +0.06 μg/ml PB): 1 µg/mL | MBC +0.06 μg/ml PB (A. baumannii ATCC 19606 [3]; A. baumannii ATCC 19606, +0.06 μg/ml polymyxin B, 1st experiment): 2 µg/mL | MBC (A. baumannii ATCC 19606 [3]; A. baumannii ATCC 19606, without PB): 4 µg/mL | MBC without PB (A. baumannii ATCC 19606 [3]; A. baumannii ATCC 19606, without polymyxin B, 1st experiment): 2 µg/mL | MIC (A. baumannii J2; +[…] PB, 2nd experiment): ≤0.125 µg/mL | MIC +[…] PB (A. baumannii J2; [24]): ≤0.125 µg/mL | MIC (A. baumannii J2; without PB, 2nd experiment): 8 µg/mL | MIC read with alamar blue (A. baumannii J2; without PB, value in parentheses, 2nd experiment): 4 µg/mL | MIC without PB (A. baumannii J2; [23]): 4 µg/mL | MIC ([4]; +[…] PB): 0.5 µg/mL | MIC ([4]; without PB): 8 µg/mL | MIC +[…] PB ([4]; Acinetobacter spp. H064200250, +[…] polymyxin B, 1st experiment): 0.5 µg/mL | MIC without PB ([4]; Acinetobacter spp. H064200250, without polymyxin B, 1st experiment): 16 µg/mL | MBC (A. baumannii A329; A. baumannii A329, +0.06 μg/ml PB): 128 µg/mL | MBC (A. baumannii A329; A. baumannii A329, without PB): >128 µg/mL | MBC without PB (A. baumannii A329; A. baumannii A329, without polymyxin B, 1st experiment): 128 µg/mL | MIC (A. baumannii A387 [5]; +0.06 μg/ml PB): 8 µg/mL | MIC +0.06 μg/ml PB (A. baumannii A387 [5]; [22]): 8 µg/mL | MIC (A. baumannii A387 [5]; without PB): 16 µg/mL | MIC without PB (A. baumannii A387 [5]; [23]): 16 µg/mL | MBC (A. baumannii A387 [6]; A. baumannii A387, +0.06 μg/ml PB): 8 µg/mL | MBC +0.06 μg/ml PB (A. baumannii A387 [6]; A. baumannii A387, +0.06 μg/ml polymyxin B, 1st experiment): 8 µg/mL | MBC (A. baumannii A387 [6]; A. baumannii A387, without PB): 16 µg/mL | MBC without PB (A. baumannii A387 [6]; A. baumannii A387, without polymyxin B, 1st experiment): 16 µg/mL | MIC (A. baumannii A390 [7]; +0.06 μg/ml PB): 4 µg/mL | MIC (A. baumannii A390 [7]; without PB): 16 µg/mL | MIC without PB (A. baumannii A390 [7]; [23]): 16 µg/mL | MBC (A. baumannii A14 [8]; A. baumannii A14, +0.06 μg/ml PB): 0.5 µg/mL | MBC (A. baumannii A14 [8]; A. baumannii A14, without PB): 1 µg/mL | MBC (A. baumannii A390 [9]; A. baumannii A390, +0.06 μg/ml PB): 4 µg/mL | MBC (A. baumannii A390 [9]; A. baumannii A390, without PB): 16 µg/mL | MBC without PB (A. baumannii A390 [9]; A. baumannii A390, without polymyxin B, 1st experiment): 16 µg/mL | MBC (A. baumannii A473 [10]; A. baumannii A473, +0.06 μg/ml PB): 4 µg/mL | MBC (A. baumannii A473 [10]; A. baumannii A473, without PB): 32 µg/mL | MBC without PB (A. baumannii A473 [10]; A. baumannii A473, without polymyxin B, 1st experiment): 32 µg/mL | MBC (A. baumannii NCTC 13301 [11]; +[…] PB): 0.5 µg/mL | MBC +[…] PB (A. baumannii NCTC 13301 [11]; [24]): 16 µg/mL | MBC (A. baumannii NCTC 13301 [11]; without PB): 128 µg/mL | MBC without PB (A. baumannii NCTC 13301 [11]; [23]): 128 µg/mL | MIC (A. baumannii A401 [12]; +0.06 μg/ml PB): 4 µg/mL | MIC +0.06 μg/ml PB (A. baumannii A401 [12]; [22]): 8 µg/mL | MIC (A. baumannii A401 [12]; without PB): 32 µg/mL | MIC without PB (A. baumannii A401 [12]; [23]): 32 µg/mL | MBC (A. baumannii A401 [13]; A baumannii A 401, +0.06 μg/ml PB): 4 µg/mL | MBC +0.06 μg/ml PB (A. baumannii A401 [13]; A baumannii A 401, +0.06 μg/ml polymyxin B, 1st experiment): 8 µg/mL | MBC (A. baumannii A401 [13]; A baumannii A 401, without PB): 32 µg/mL | MBC without PB (A. baumannii A401 [13]; A baumannii A 401, without polymyxin B, 1st experiment): 32 µg/mL | MIC (A. baumannii A472 [14]; +[…] PB): 0.25 µg/mL | MIC +[…] PB (A. baumannii A472 [14]; [24]): 0.25 µg/mL | MIC (A. baumannii A472 [14]; without PB): 8 µg/mL | MIC without PB (A. baumannii A472 [14]; [23]): 16 µg/mL | MBC (A. baumannii A472 [15]; +[…] PB): 0.25 µg/mL | MBC +[…] PB (A. baumannii A472 [15]; [24]): 0.25 µg/mL | MBC (A. baumannii A472 [15]; without PB): 8 µg/mL | MBC without PB (A. baumannii A472 [15]; [23]): 16 µg/mL | MIC (A. baumannii A473 [16]; +0.06 μg/ml PB): 4 µg/mL | MIC (A. baumannii A473 [16]; without PB): 32 µg/mL | MIC without PB (A. baumannii A473 [16]; [23]): 32 µg/mL | MIC (A. baumannii A489; +[…] PB): 0.25 µg/mL | MIC +[…] PB (A. baumannii A489; [24]): 2 µg/mL | MIC (A. baumannii A489; without PB): 64 µg/mL | MIC +[…] PB (A. baumannii NCTC 13301 [17]): 16 µg/mL | MIC (A. baumannii NCTC 13301 [18]): 1 µg/mL | MIC +0.06 μg/ml PB (A. baumannii A14 [19]; +0.06 μg/ml polymyxin B): 1 µg/mL | MIC without PB (A. baumannii A14 [19]; without polymyxin B): 1 µg/mL | MIC (A. baumannii A14 [20]; +0.06 μg/ml PB): 1 µg/mL | MIC (A. baumannii A14 [20]; without PB): 1 µg/mL | MBC +0.06 μg/ml PB (A. baumannii A14 [21]; +0.06 μg/ml polymyxin B): 1 µg/mL | MBC without PB (A. baumannii A14 [21]; without polymyxin B): 2 µg/mL
